PMC2781006 (Virology Journal, 2009)
Where two headings read alike, the source gives them in different places.

How the values were obtained:
Nipah virus [1] = test: microbe, parasite or virus in culture; format: cell-based; details: read-out: NiV IC50
Hendra virus = test: microbe, parasite or virus in culture; format: cell-based; details: read-out: HeV IC50
in vitro [2] = details: African green monkey
Nipah virus [3] = details: hamster, in vivo; cited from earlier work
in vitro [4] = details: human
[5] = tested on: pseudotyped Hendra (pHeV); test: microbe, parasite or virus in culture; format: cell-based, Hendra virus; details: read-out: pHeV IC50
[6] = tested on: Influenza A/swine/Rachaburi/2000 (H1N1); test: microbe, parasite or virus in culture; format: cell-based, Influenza A virus
Nipah virus [7] = test: microbe, parasite or virus in culture; format: cell-based; details: Henipavirus nipahense
IL-8 = format: cell-based, African Green Monkey
[8] = tested on: human parainfluenza virus type 3 (HPIV3); test: microbe, parasite or virus in culture; format: cell-based; details: read-out: HPIV3 IC50
VSV (pVSV) = test: microbe, parasite or virus in culture; format: cell-based, vesicular stomatitis virus; details: read-out: pVSV IC50
TNF-α = format: cell-based, African Green Monkey
pseudotyped Nipah (pNiV) = test: microbe, parasite or virus in culture; format: cell-based, Nipah virus; details: read-out: pNiV IC50
influenza A (H1N1) virus = details: cited from earlier work
Henipavirus = details: cited from earlier work
[9] = 1 h, read-out: NiV IC50, co-infection (Co)
[10] = 1 h, read-out: NiV IC50, post-infection (Post)
[11] = 1 h, read-out: NiV IC50, pre-infection (Pre)
[12] = read-out: NiV IC50, cell pre-incubation (Cells)
[13] = Human respirovirus 3, HEK-293T, 24 h
[14] = Vesicular stomatitis virus, HEK-293T, 48 h
[15] = Henipavirus nipahense, HEK-293T, 48 h

| Compound | IC50 (Nipah virus [1]; Henipavirus nipahense, Vero) [nM] | IC50 (Hendra virus; Henipavirus hendraense, Vero) [nM] | CC50 (in vitro [2]) [nM] | CC50 (in vitro [4]) [nM] | IC50 ([5]; Hendra virus, HEK-293T, 48 h) [nM] | inhibition of influenza (H1N1) virus, in words [6] | IC50 (Nipah virus [7]; [9]) [nM] | IC50 (Nipah virus [7]; [10]) [nM] | IC50 (Nipah virus [7]; [11]) [nM] | IC50 (Nipah virus [7]; [12]) [nM] | IL-8 expression, fold change (IL-8) | IC50 [8, 13] [nM] | IC50 (VSV (pVSV); [14]) [nM] | TNF-α expression, fold change (TNF-α) | IC50 (pseudotyped Nipah (pNiV); [15]) [nM] | Influenza IC50 [6] | also measured |
| --- | --- | --- | --- | --- | --- | --- | --- | --- | --- | --- | --- | --- | --- | --- | --- | --- | --- |
| NC(=O)c1ncn([C@@H]2O[C@H](CO)[C@@H](O)[C@H]2O)n1 [Ribavirin, ribavirin] | 3900 | 2240 | 150000 |  |  |  |  |  |  |  |  |  |  |  |  |  |  |
| poly(I)-poly(C12U) |  |  |  |  |  |  |  |  |  |  |  |  |  |  |  |  | prevention of mortality (Nipah virus [3]): five of six animals |
| CN1C(=O)[C@]23CC4=CC=C[C@H](O)[C@H]4N2C(=O)[C@@]1(CO)SS3 [Gliotoxin, gliotoxin] | 149 | 579 | 4900 | 1610 | 366 | dose-dependant inhibition | 468 | 610 | 1170 | 487 | two fold | 527 | 232 | suppressed | 100 |  | IC50 ([6]; Influenza A virus, H1N1, Vero, in Sus scrofa, 24 h, read-out: Influenza IC50): 13800 nM |
| CN(C)c1ccc(C(=C2C=CC(=[N+](C)C)C=C2)c2ccc(N(C)C)cc2)cc1 [Gentian Violet, gentian violet] | 525 | 2680 | 5860 | 2830 | 0.3 | did not observe clear inhibition | 4980 | 3950 | 7380 | 587 | two fold | 860 | 268 |  | 61 | DNC^a | residual viable count of influenza virus, 30 min (influenza A (H1N1) virus): below three logs; residual viable count of influenza virus, 60 min (influenza A (H1N1) virus): below five logs |
| CCN(CC)CCCC(C)Nc1ccnc2cc(Cl)ccc12 (centres unmarked) [chloroquine] |  |  |  |  |  |  |  |  |  |  |  |  |  |  |  |  | anti Henipavirus effects in vivo (Henipavirus): no anti Henipavirus effects |
| brilliant green |  |  |  |  |  | did not observe antiviral efficacy |  |  |  |  | 20 fold |  |  | 15 fold |  | DNC^a | CC50 (293T cells): 861 nM; IC50 [5]: 34 nM; IC50 (Nipah virus [1]): 218 nM; CC50 (Vero cells): 4670 nM; IC50 [8]: 248 nM; IC50 (VSV (pVSV)): 15 nM; IC50 (Hendra virus): 778 nM; IC50 (pseudotyped Nipah (pNiV)): 42 nM |
